Reference: patent US8071763B2, “Methods for treatment of nocturia” (Daiichi Sankyo Company, Limited, priority 2002, dated 2011)
Marks after values point to notes of the source that are not given here.

Test system: patients with nocturia
Assay: Non-randomized trial treatment with loxoprofen in patients with nocturia; voids/night outcome assessed as excellent, improved, unchanged or worsened
Format: in vivo, human
Procedure: One hundred forty one patients (135 men) aged 49 to 89 (mean 70.5) years with LUTS and =2 voids per night were enrolled in the study. Their main diseases were BPH (n=93), prostate cancer (n=24) and neurogenic bladder (NB) (n=13); 11 had other diseases. […] Patients who had asthma, gastrointestinal disorders, renal dysfunction and allergies to loxoprofen were excluded. Patients took a single 60 mg loxoprofen tablet prior to sleeping at night for 4 to 14 days initially concurrently with their treatments for their main diseases. Numbers of voids/night as reported by each patient were evaluated and treatment outcome was assessed as either excellent (nocturia disappeared or decreased by =2 voids/night), improved (nocturia decreased by 1 void/night), unchanged or worsened (nocturia increased).

[1] = 60 mg prior to sleeping, 108 patients who did not respond to anticholinergic drugs
[2] = 60 mg prior to sleeping, Antidiuretic hormone non-responder, 3 patients
[3] = 60 mg prior to sleeping, Antidiuretic hormone responder, 6 patients
[4] = 60 mg prior to sleeping, BPH, 93 patients
[5] = 60 mg prior to sleeping, BPH, 93 patients, listed as Loxoprofen
[6] = 60 mg prior to sleeping, Female, 6
[7] = 60 mg prior to sleeping, Insomnia, 20 patients
[8] = 60 mg prior to sleeping, Male, 135
[9] = 60 mg prior to sleeping, Neurogenic bladder, 13 patients
[10] = 60 mg prior to sleeping, Neurogenic bladder, 13 patients, listed as Loxoprofen
[11] = 60 mg prior to sleeping, Nocturnal polyuria, 7 patients
[12] = 60 mg prior to sleeping, Post-TURP, 18 patients
[13] = 60 mg prior to sleeping, Post-thermotherapy, 19 patients
[14] = 60 mg prior to sleeping, Prostate cancer, 24 patients
[15] = 60 mg prior to sleeping, Prostate cancer, 24 patients, listed as Loxoprofen
[16] = 60 mg prior to sleeping, Prostate cancer, hormone therapy, 15 patients
[17] = 60 mg prior to sleeping, Prostate cancer, post-prostatectomy (radical), 5 patients
[18] = 60 mg prior to sleeping, Prostate cancer, post-radiation, 4 patients
[19] = 60 mg prior to sleeping, Prostatodynia, 5 patients
[20] = 60 mg prior to sleeping, Urinary frequency with UUI, 10 patients
[21] = 60 mg prior to sleeping, Urinary frequency without UUI, 9 patients
[22] = 60 mg prior to sleeping, aged 49 to 59 years
[23] = 60 mg prior to sleeping, aged 60 to 69 years
[24] = 60 mg prior to sleeping, aged 70 to 79 years
[25] = 60 mg prior to sleeping, aged 80 to 86 years
[26] = 60 mg prior to sleeping, frequency at baseline 2 and 2-3, 56 patients
[27] = 60 mg prior to sleeping, frequency at baseline 3-4, 59 patients
[28] = 60 mg prior to sleeping, frequency at baseline 4-5, 15 patients
[29] = 60 mg prior to sleeping, frequency at baseline >5, 11 patients
[30] = 60 mg prior to sleeping, non-responders to Anticholinergics, 32 patients
[31] = 60 mg prior to sleeping, non-responders to Hypnotics, 42 patients
[32] = 60 mg prior to sleeping, non-responders to TCA (tricyclic antidepressants), 76 patients

## CC(C(=O)O)c1ccc(CC2CCCC2=O)cc1 (centres unmarked) [loxoprofen, loxoprofen sodium]
60 mg prior to sleeping
  Onset of changes in patients' symptoms: starting from the first night of therapy
60 mg prior to sleeping, 85 patients with more frequent nocturia than 2 to 3 episodes at baseline
  Excellent responder rate: 46%
[1]
  Excellent rate: 44%
  Improved rate: 38%
60 mg prior to sleeping, 141 patients
  Nocturia improved or disappeared, % of patients overall: 72%
[2]
  Improved, % of patients: (33%)
  Improved, no. of patients: 1
  Unchanged, % of patients: 67%
  Unchanged, no. of patients: 2
[3]
  Excellent, % of patients: (17%)
  Excellent, no. of patients: 1
  Improved, % of patients: (67%)
  Improved, no. of patients: 4
  Unchanged, % of patients: 17%
  Unchanged, no. of patients: 1
[4]
  Excellent, % of patients: (39%)
  Excellent, no. of patients: 36^
  Improved, % of patients: (34%)
  Improved, no. of patients: 32^
  Unchanged, % of patients: (23%)
  Unchanged, no. of patients: 21^
  Worsened, % of patients: (4%)
  Worsened, no. of patients: 4
[5]
  Excellent, % of patients: 39%
  Improved, % of patients: 34%
[6]
  Excellent, % of patients: (33%)
  Excellent, no. of patients: 2
  Improved, % of patients: (33%)
  Improved, no. of patients: 2
  Unchanged, % of patients: (33%)
  Unchanged, no. of patients: 2
[7]
  Excellent, % of patients: (35%)
  Excellent, no. of patients: 7^
  Improved, % of patients: (40%)
  Improved, no. of patients: 8^
  Unchanged, % of patients: (20%)
  Unchanged, no. of patients: 4^
  Worsened, % of patients: (5%)
  Worsened, no. of patients: 1
60 mg prior to sleeping, Insomnia, 20 patients, listed as Loxoprofen
  Excellent, % of patients: 35%
60 mg prior to sleeping, Interstitial cystitis, 2 patients
  Excellent, no. of patients: 2^¶
[8]
  Excellent, % of patients: (36%)
  Excellent, no. of patients: 49
  Improved, % of patients: (36%)
  Improved, no. of patients: 48
  Unchanged, % of patients: (24%)
  Unchanged, no. of patients: 32
  Worsened, % of patients: (4%)
  Worsened, no. of patients: 6
[9]
  Excellent, % of patients: (69%)
  Excellent, no. of patients: 9^‡
  Improved, % of patients: (8%)
  Improved, no. of patients: 1^¶
  Unchanged, % of patients: (15%)
  Unchanged, no. of patients: 2^¶
  Worsened, % of patients: (8%)
  Worsened, no. of patients: 1
[10]
  Excellent, % of patients: 69%
  Improved, % of patients: 8%
[11]
  Excellent, % of patients: (14%)
  Excellent, no. of patients: 1^
  Improved, % of patients: (71%)
  Improved, no. of patients: 5^
  Unchanged, % of patients: (14%)
  Unchanged, no. of patients: 1^
60 mg prior to sleeping, Nocturnal polyuria, 7 patients, listed as Loxoprofen
  Excellent, % of patients: 14%
[12]
  Excellent, no. of patients: 8
  Improved, % of patients: (27%)
  Improved, no. of patients: 5
  Unchanged, % of patients: 22%
  Unchanged, no. of patients: 4
  Worsened, % of patients: 6%
  Worsened, no. of patients: 1
[13]
  Excellent, no. of patients: 8
  Improved, % of patients: (26%)
  Improved, no. of patients: 5
  Unchanged, % of patients: 32%
  Unchanged, no. of patients: 6
[14]
  Excellent, % of patients: (29%)
  Excellent, no. of patients: 7^
  Improved, % of patients: (33%)
  Improved, no. of patients: 8^
  Unchanged, % of patients: (33%)
  Unchanged, no. of patients: 8^
  Worsened, % of patients: (4%)
  Worsened, no. of patients: 1
[15]
  Excellent, % of patients: 29%
  Improved, % of patients: 33%
[16]
  Excellent, no. of patients: 5^
  Improved, no. of patients: 3^
  Unchanged, no. of patients: 6^
  Worsened, no. of patients: 1
[17]
  Excellent, no. of patients: 1^
  Improved, no. of patients: 2^
  Unchanged, no. of patients: 2^
[18]
  Excellent, no. of patients: 1^
  Improved, no. of patients: 3^
[19]
  Excellent, % of patients: (20%)
  Excellent, no. of patients: 1^
  Improved, % of patients: (40%)
  Improved, no. of patients: 2^
  Unchanged, % of patients: (20%)
  Unchanged, no. of patients: 1^
  Worsened, % of patients: (20%)
  Worsened, no. of patients: 1
60 mg prior to sleeping, Total 141
  Worsened, no. of patients: 6
[20]
  Excellent, % of patients: (20%)
  Excellent, no. of patients: 2^
  Improved, % of patients: (50%)
  Improved, no. of patients: 5^†
  Unchanged, % of patients: (30%)
  Unchanged, no. of patients: 3^¶
60 mg prior to sleeping, Urinary frequency with UUI, 10 patients, listed as Loxoprofen
  Excellent, % of patients: 20%
[21]
  Excellent, % of patients: (44%)
  Excellent, no. of patients: 4^¶
  Improved, % of patients: (22%)
  Improved, no. of patients: 2^
  Unchanged, % of patients: (22%)
  Unchanged, no. of patients: 2^¶
  Worsened, % of patients: (11%)
  Worsened, no. of patients: 1
60 mg prior to sleeping, Urinary frequency without UUI, 9 patients, listed as Loxoprofen
  Excellent, % of patients: 44%
[22]
  Excellent responses, % of patients: 50%
  Excellent responses, patients/group size: 4/8
[23]
  Excellent responses, % of patients: 40%
  Excellent responses, patients/group size: 17/43
[24]
  Excellent responses, % of patients: 35%
  Excellent responses, patients/group size: 23/65
[25]
  Excellent responses, % of patients: 28%
  Excellent responses, patients/group size: 7/25
[26]
  Excellent, % of patients: (21%)
  Excellent, no. of patients: 12*^
  Improved, % of patients: (41%)
  Improved, no. of patients: 23^†
  Unchanged, % of patients: (34%)
  Unchanged, no. of patients: 19^†
  Worsened, % of patients: (4%)
  Worsened, no. of patients: 2
60 mg prior to sleeping, frequency at baseline 2 and 2-3, 56 patients, listed as Loxoprofen
  Excellent, % of patients: 21%
[27]
  Excellent, % of patients: (47%)
  Excellent, no. of patients: 28^†
  Improved, % of patients: (31%)
  Improved, no. of patients: 18^†
  Unchanged, % of patients: (17%)
  Unchanged, no. of patients: 10^†
  Worsened, % of patients: (5%)
  Worsened, no. of patients: 3
[28]
  Excellent, % of patients: (40%)
  Excellent, no. of patients: 6^
  Improved, % of patients: (40%)
  Improved, no. of patients: 6^
  Unchanged, % of patients: (20%)
  Unchanged, no. of patients: 3^
[29]
  Excellent, % of patients: (45%)
  Excellent, no. of patients: 5^†
  Improved, % of patients: (27%)
  Improved, no. of patients: 3^
  Unchanged, % of patients: (18%)
  Unchanged, no. of patients: 2^
  Worsened, % of patients: (5%)
  Worsened, no. of patients: 1
[30]
  Excellent, % of patients: (44%)
  Excellent, no. of patients: 14
  Improved, % of patients: (38%)
  Improved, no. of patients: 12
  Unchanged, % of patients: 19%
  Unchanged, no. of patients: 6
  Worsened, % of patients: 3%
  Worsened, no. of patients: 1
[31]
  Excellent, no. of patients: 13
  Improved, no. of patients: 16
  Unchanged, % of patients: 26%
  Unchanged, no. of patients: 11
  Worsened, % of patients: 5%
  Worsened, no. of patients: 2
[32]
  Excellent, % of patients: (39%)
  Excellent, no. of patients: 30
  Improved, % of patients: (37%)
  Improved, no. of patients: 28
  Unchanged, % of patients: 22%
  Unchanged, no. of patients: 17
  Worsened, % of patients: 5%
  Worsened, no. of patients: 4
60 mg prior to sleeping, patients who previously responded or were refractory to antidiuretic hormone
  Excellent effects, patients: one of nine patients
human, in vivo
  Side effects such as dry mouth, constipation and habituation: does not produce side effects
Patients whose nocturia improved
  Quality of life: noticeable improvements in their quality of life
Patients with BOO
  Effect on voiding power: does not decrease voiding power
Some patients of the unchanged group
  Time to first voiding: delayed by several hours
